This data set can be described thus: Solubility in phosphate buffer pH 7.4. An outline of the steps: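 Solubility at pH 7.4 determined by stepwise addition of 200 mM phosphate buffer in 100 μL increments to 3 mg peptide, mixing briefly each time, until no insoluble material remained, then measured by liquid chromatography.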
[1] abbreviates: pH 7.4, aqueous buffer, pH 7.4 Phosphate Buffer - Solubility, 200 mM Phosphate buffer pH 7.4.
[2] abbreviates: pH 7.4, solubility in phosphate buffer at pH 7.4, 200 mM phosphate buffer pH 7.4.

What is called solubility is how much of the substance goes into solution per volume. The low end stands for a poorly soluble substance, the high end for a readily soluble substance.

Molecules are shown by their SMILES. Starred links: 1 amine or outer side, 2 acyl side, 3 side chain; linkers in the order of their positions; H or OH if unused. Non-standard residues stand in square brackets, D forms with d. Residues, ends and D or L forms follow the SMILES beside them. Groups on a side chain read outwards from the residue. *: point of attachment. C18 diacid = O=C(O)CCCCCCCCCCCCCCCCC(=O)*; C17 diacid = O=C(O)CCCCCCCCCCCCCCCC(=O)*; γGlu = O=C(O)[C@H](CCC(=O)[*:2])N[*:1]; NMeY = CN[C@@H](Cc1ccc(O)cc1)C(=O)O; AEEA = NCCOCCOCC(=O)O; Aib = CC(C)(N)C(=O)O

On to `CC[C@H](C)[C@H](NC(=O)[C@H](Cc1ccccc1)NC(=O)[C@@H](NC(=O)CNC(=O)[C@H](CCC(=O)O)NC(=O)C(C)(C)NC(=O)[C@H](Cc1ccc(O)cc1)NC)[C@@H](C)O)C(=O)N[C@@H](CO)C(=O)N[C@@H](CC(=O)O)C(=O)N[C@@H](Cc1ccc(O)cc1)C(=O)N[C@@H](CO)C(=O)N[C@H](C(=O)NC(C)(C)C(=O)N[C@@H](CCCCNC(=O)CNC(=O)CNC(=O)CNC(=O)CNC(=O)CNC(=O)CC[C@H](NC(=O)CCCCCCCCCCCCCCCCC(=O)O)C(=O)O)C(=O)N[C@@H](CC(=O)O)C(=O)N[C@@H](CCCNC(=N)N)C(=O)NC(C)(C)C(=O)N[C@@H](C)C(=O)N[C@@H](CCC(N)=O)C(=O)NC(C)(C)C(=O)N[C@@H](CC(N)=O)C(=O)N[C@@H](Cc1ccccc1)C(=O)N[C@H](C(=O)N[C@@H](CC(N)=O)C(=O)N[C@@H](Cc1c[nH]c2ccccc12)C(=O)N[C@@H](CC(C)C)C(=O)N[C@@H](CC(C)C)C(=O)N[C@@H](C)C(=O)N[C@@H](CCC(N)=O)C(=O)N[C@@H](CCCNC(=N)N)C(=O)N1CCC[C@H]1C(=O)N[C@@H](CO)C(=O)N[C@@H](CO)C(=O)NCC(=O)N[C@@H](C)C(=O)N1CCC[C@H]1C(=O)N1CCC[C@H]1C(=O)N1CCC[C@H]1C(=O)N[C@@H](CO)C(N)=O)C(C)C)[C@@H](C)CC` [Compound 262], for which the solubility under setting [1] is < 6 mg/mL.

Take `CC[C@H](C)[C@H](NC(=O)[C@H](CO)NC(=O)[C@H](Cc1ccc(O)cc1)NC(=O)[C@H](CC(=O)O)NC(=O)[C@H](CO)NC(=O)[C@@H](NC(=O)[C@H](Cc1ccccc1)NC(=O)[C@@H](NC(=O)CNC(=O)[C@H](CCC(=O)O)NC(=O)C(C)(C)NC(=O)[C@H](Cc1ccc(O)cc1)NC)[C@@H](C)O)[C@@H](C)CC)C(=O)N[C@@H](C)C(=O)N[C@@H](CC(C)C)C(=O)N[C@@H](CC(=O)O)C(=O)N[C@@H](CCCNC(=N)N)C(=O)NC(C)(C)C(=O)N[C@@H](CCCCNC(=O)COCCOCCNC(=O)COCCOCCNC(=O)CC[C@H](NC(=O)CC[C@H](NC(=O)CCCCCCCCCCCCCCCCC(=O)O)C(=O)O)C(=O)O)C(=O)N[C@@H](CCC(N)=O)C(=O)NC(C)(C)C(=O)N[C@@H](CC(N)=O)C(=O)N[C@@H](Cc1ccccc1)C(=O)N[C@H](C(=O)N[C@@H](CC(N)=O)C(=O)N[C@@H](Cc1c[nH]c2ccccc12)C(=O)N[C@@H](CC(C)C)C(=O)N[C@@H](CC(C)C)C(=O)N[C@@H](C)C(=O)N[C@@H](CCC(N)=O)C(=O)N[C@@H](CCCNC(=N)N)C(N)=O)C(C)C` [Compound 17] (H-[NMeY][Aib]EGTFISDYSIALDR[Aib]K([AEEA-AEEA-γGlu-γGlu-C18 diacid])Q[Aib]NFVNWLLAQR-NH2): the solubility runs as follows: (pH 7.4) ≥ 15 mg/mL; (pH 7.4, aqueous buffer) ≥ 30 mg/mL.

For the compound `CC[C@H](C)[C@H](NC(=O)[C@H](CO)NC(=O)[C@H](Cc1ccc(O)cc1)NC(=O)[C@H](CC(=O)O)NC(=O)[C@H](CO)NC(=O)[C@@H](NC(=O)[C@H](Cc1ccccc1)NC(=O)[C@@H](NC(=O)CNC(=O)[C@H](CCC(=O)O)NC(=O)C(C)(C)NC(=O)[C@H](Cc1ccc(O)cc1)NC)[C@@H](C)O)[C@@H](C)CC)C(=O)N[C@@H](C)C(=O)N[C@@H](CCCCNC(=O)CNC(=O)CNC(=O)CNC(=O)CNC(=O)CNC(=O)CC[C@H](NC(=O)CC[C@H](NC(=O)CCCCCCCCCCCCCCCCC(=O)O)C(=O)O)C(=O)O)C(=O)N[C@@H](CC(=O)O)C(=O)N[C@@H](CCCNC(=N)N)C(=O)NC(C)(C)C(=O)N[C@@H](C)C(=O)N[C@@H](CCC(N)=O)C(=O)NC(C)(C)C(=O)N[C@@H](CC(N)=O)C(=O)N[C@@H](Cc1ccccc1)C(=O)N[C@H](C(=O)N[C@@H](CC(N)=O)C(=O)N[C@@H](Cc1c[nH]c2ccccc12)C(=O)N[C@@H](CC(C)C)C(=O)N[C@@H](CC(C)C)C(=O)N[C@@H](C)C(=O)N[C@@H](CCC(N)=O)C(=O)N[C@@H](CCCNC(=N)N)C(=O)N1CCC[C@H]1C(=O)N[C@@H](CO)C(=O)N[C@@H](CO)C(=O)NCC(=O)N[C@@H](C)C(=O)N1CCC[C@H]1C(=O)N1CCC[C@H]1C(=O)N1CCC[C@H]1C(=O)N[C@@H](CO)C(N)=O)C(C)C` [Compound 34], the solubility was ≥ 30 mg/mL under setting [1] and ≥ 15 mg/mL under setting [2].

Regarding `CC[C@H](C)[C@H](NC(=O)[C@H](CO)NC(=O)[C@H](Cc1ccc(O)cc1)NC(=O)[C@H](CC(=O)O)NC(=O)[C@H](CO)NC(=O)[C@@H](NC(=O)[C@H](Cc1ccccc1)NC(=O)[C@@H](NC(=O)CNC(=O)[C@H](CCC(=O)O)NC(=O)C(C)(C)NC(=O)[C@H](Cc1ccc(O)cc1)NC)[C@@H](C)O)[C@@H](C)CC)C(=O)N[C@@H](C)C(=O)N[C@@H](CC(C)C)C(=O)N[C@@H](CC(=O)O)C(=O)N[C@@H](CCCNC(=N)N)C(=O)NC(C)(C)C(=O)N[C@@H](C)C(=O)N[C@@H](CCC(N)=O)C(=O)NC(C)(C)C(=O)N[C@@H](CC(=O)O)C(=O)N[C@@H](Cc1ccccc1)C(=O)N[C@H](C(=O)N[C@@H](CC(N)=O)C(=O)N[C@@H](Cc1c[nH]c2ccccc12)C(=O)N[C@@H](CC(C)C)C(=O)N[C@@H](CC(C)C)C(=O)N[C@@H](C)C(=O)N[C@@H](CCC(N)=O)C(=O)N[C@@H](CCCCNC(=O)COCCOCCNC(=O)COCCOCCNC(=O)CC[C@H](NC(=O)CC[C@H](NC(=O)CCCCCCCCCCCCCCCCC(=O)O)C(=O)O)C(=O)O)C(=O)NCC(=O)O)C(C)C` [Compound 61] (H-[NMeY][Aib]EGTFISDYSIALDR[Aib]AQ[Aib]DFVNWLLAQK([AEEA-AEEA-γGlu-γGlu-C18 diacid])G-OH), the solubility runs as follows: (pH 7.4) ≥ 15 mg/mL; (pH 7.4, aqueous buffer) ≥ 30 mg/mL.

For `CC[C@H](C)[C@H](NC(=O)[C@H](CO)NC(=O)[C@H](Cc1ccc(O)cc1)NC(=O)[C@H](CC(=O)O)NC(=O)[C@H](CO)NC(=O)[C@@H](NC(=O)[C@H](Cc1ccccc1)NC(=O)[C@@H](NC(=O)CNC(=O)[C@H](CCC(=O)O)NC(=O)C(C)(C)NC(=O)[C@H](Cc1ccc(O)cc1)NC)[C@@H](C)O)[C@@H](C)CC)C(=O)N[C@@H](C)C(=O)N[C@@H](CC(C)C)C(=O)N[C@@H](CC(=O)O)C(=O)N[C@@H](CCCNC(=N)N)C(=O)N[C@@H](C)C(=O)N[C@@H](C)C(=O)N[C@@H](CCC(N)=O)C(=O)N[C@@H](CCC(N)=O)C(=O)N[C@@H](CCCCNC(=O)COCCOCCNC(=O)COCCOCCNC(=O)CC[C@H](NC(=O)CC[C@H](NC(=O)CCCCCCCCCCCCCCCCC(=O)O)C(=O)O)C(=O)O)C(=O)N[C@@H](Cc1ccccc1)C(=O)N[C@H](C(=O)N[C@@H](CC(N)=O)C(=O)N[C@@H](Cc1c[nH]c2ccccc12)C(=O)N[C@@H](CC(C)C)C(=O)N[C@@H](CC(C)C)C(=O)N[C@@H](C)C(=O)N[C@@H](CCC(N)=O)C(=O)N[C@@H](CO)C(=O)N1CCC[C@H]1C(=O)NCC(=O)O)C(C)C` [Compound 178] (H-[NMeY][Aib]EGTFISDYSIALDRAAQQK([AEEA-AEEA-γGlu-γGlu-C18 diacid])FVNWLLAQSPG-OH), the solubility is ≥ 15 mg/mL (pH 7.4) and ≥ 30 mg/mL (pH 7.4, aqueous buffer).

For `CC[C@H](C)[C@H](NC(=O)[C@H](CO)NC(=O)[C@H](Cc1ccc(O)cc1)NC(=O)[C@H](CC(=O)O)NC(=O)[C@H](CO)NC(=O)[C@@H](NC(=O)[C@H](Cc1ccccc1)NC(=O)[C@@H](NC(=O)CNC(=O)[C@H](CCC(=O)O)NC(=O)C(C)(C)NC(=O)[C@H](Cc1ccc(O)cc1)NC)[C@@H](C)O)[C@@H](C)CC)C(=O)N[C@@H](C)C(=O)N[C@@H](CC(C)C)C(=O)N[C@@H](CC(=O)O)C(=O)N[C@@H](CCCNC(=N)N)C(=O)NC(C)(C)C(=O)N[C@@H](C)C(=O)N[C@@H](CCC(N)=O)C(=O)NC(C)(C)C(=O)N[C@@H](CC(N)=O)C(=O)N[C@@H](Cc1ccccc1)C(=O)N[C@H](C(=O)N[C@@H](CC(N)=O)C(=O)N[C@@H](Cc1c[nH]c2ccccc12)C(=O)N[C@@H](CC(C)C)C(=O)N[C@@H](CC(C)C)C(=O)N[C@@H](C)C(=O)N[C@@H](CCCCNC(=O)COCCOCCNC(=O)COCCOCCNC(=O)CC[C@H](NC(=O)CC[C@H](NC(=O)CCCCCCCCCCCCCCCCC(=O)O)C(=O)O)C(=O)O)C(=O)N[C@@H](CCCNC(=N)N)C(=O)NCC(=O)O)C(C)C` [Compound 55] (H-[NMeY][Aib]EGTFISDYSIALDR[Aib]AQ[Aib]NFVNWLLAK([AEEA-AEEA-γGlu-γGlu-C18 diacid])RG-OH), the solubility (pH 7.4) is ≥ 15 mg/mL and the solubility (pH 7.4, aqueous buffer) is ≥ 30 mg/mL.

For `CC[C@H](C)[C@H](NC(=O)[C@H](Cc1ccccc1)NC(=O)[C@@H](NC(=O)CNC(=O)[C@H](CCC(=O)O)NC(=O)C(C)(C)NC(=O)[C@H](Cc1ccc(O)cc1)NC)[C@@H](C)O)C(=O)N[C@@H](CO)C(=O)N[C@@H](CC(=O)O)C(=O)N[C@@H](Cc1ccc(O)cc1)C(=O)N[C@@H](CO)C(=O)N[C@H](C(=O)NC(C)(C)C(=O)N[C@@H](CCCCNC(=O)COCCOCCNC(=O)COCCOCCNC(=O)CC[C@H](NC(=O)CC[C@H](NC(=O)CCCCCCCCCCCCCCCC(=O)O)C(=O)O)C(=O)O)C(=O)N[C@@H](CC(=O)O)C(=O)N[C@@H](CCCNC(=N)N)C(=O)NC(C)(C)C(=O)N[C@@H](C)C(=O)N[C@@H](CCC(N)=O)C(=O)NC(C)(C)C(=O)N[C@@H](CC(N)=O)C(=O)N[C@@H](Cc1ccccc1)C(=O)N[C@H](C(=O)N[C@@H](CC(N)=O)C(=O)N[C@@H](Cc1c[nH]c2ccccc12)C(=O)N[C@@H](CC(C)C)C(=O)N[C@@H](CC(C)C)C(=O)N[C@@H](C)C(=O)N[C@@H](CCC(N)=O)C(=O)N[C@@H](CO)C(=O)N1CCC[C@H]1C(=O)N[C@@H](CO)C(=O)N[C@@H](CO)C(=O)NCC(=O)N[C@@H](C)C(=O)N1CCC[C@H]1C(=O)N1CCC[C@H]1C(=O)N1CCC[C@H]1C(=O)N[C@@H](CO)C(N)=O)C(C)C)[C@@H](C)CC` [Compound 29] (H-[NMeY][Aib]EGTFISDYSI[Aib]K([AEEA-AEEA-γGlu-γGlu-C17 diacid])DR[Aib]AQ[Aib]NFVNWLLAQSPSSGAPPPS-NH2), the solubility under setting [1] is ≥ 30 mg/mL and the solubility under setting [2] is ≥ 15 mg/mL.

The record behind these values is patent US20230143604A1, “QW DOSING OF GIP RECEPTOR AGONIST PEPTIDE COMPOUNDS AND USES THEREOF” (TAKEDA PHARMACEUTICAL COMPANY LIMITED, priority 2020, published 2023).
